Results from patent US9181286B2, “Pantothenate derivatives for the treatment of neurologic disorders” (Retrophin, Inc., priority 2012, dated 2015).

How the values were obtained:
[1] = test system: Escherichia coli K-12 strain SJ16; assay: SJ16 recovery (in vitro bacterial testing, growth without pantothenate); type: cell-based; conditions: test compound 8 μM in growth medium, 37° C., 18 hours, solid medium without calcium pantothenate (non-permissive)
Description: Thus, it serves as a useful assay in determining whether a compound can rescue an organism deficient in PANK, the cause of PKAN. Compounds of the present invention were tested for toxicity and for the ability to support growth of Escherichia coli K-12 strains SJ16 (see, e.g., Jackowski et al., J. Bacteriol., 148, 926-932, 1981) and DV70 (see, e.g., Vallari et al., J. Bacteriol., 169, 5795-5800, 1987) under permissive and non-permissive conditions. The test compound in a solvent (dimethylsulfoxide, DMSO) was added to growth medium at a final concentration of 8 μM. Solvent alone (DMSO) was added to the growth medium at a final concentration ≦0.1% as a control.
Strain SJ16 was grown at 37° C. for 18 hours on a solid medium containing agar (1.5%), M9 minimal essential salts (see, Miller, Experiments in Molecular Genetics. Cold Spring Harbor Laboratory, Cold Spring Harbor, N.Y., 1972), glucose (0.4%), methionine (50 μg/ml), and with (permissive) or without (non-permissive) calcium pantothenate (1 μM). Lack of growth with calcium pantothenate supplementation indicated toxicity. Growth without calcium pantothenate supplementation indicated the ability of the bacteria to metabolize the compound to yield pantothenate or β-alanine.

HEK 293T cells = assay: Acetyl-CoA level in HEK 293T cells by mass spectrometry; type: cell-based, human; conditions: 200 μM compound, p<0.0005
Description: FIG. 1 is a bar graph showing the levels of acetyl CoA in human HEK 293T cells, as measured by mass spectrometry, following treatment with the compounds of Examples 2, 5, 7 and 12.
The compounds of Examples 2, 5, 7 and 12 were tested in immortalized human cells (HEK 293T). The amount of acetyl-CoA (the downstream result of PANK) following administration of the compounds of Examples 2, 5, 7 and 12 were measured by mass spectrometry.
Treatment of HEK 293T cells with 20 μM of the compound of Example 7 afforded a 38% increase in acetyl CoA over baseline (p<0.005).

Pank1−/− mice = assay: Liver Coenzyme A (mBBr-CoA, HPLC) in Pank1−/− mice; type: in vivo
Description: Compounds of the invention were tested for efficacy in Pank1^−/− mice (strain 129SvJ×C57BL/6J background) which were compared with age-matched Pank1^+/+ (strain 129SvJ×C57BL/6J) littermates, ages 8-12 weeks. Each mouse was identified with a coded ear tag and weighed on the first day of testing. Each compound was administered to 4-5 mice by intraperitoneal injection at a dose of 1.2 μmoles/g body weight in 5 μL dimethylsulfoxide once daily for 5 days, and mice were then fasted overnight, weighed and euthanized. Untreated mice received 5 μL dimethylsulfoxide once daily for 5 days and then were fasted overnight prior to weighing and euthanasia. Livers were excised from each mouse, aliquots were snap-frozen in liquid nitrogen, and stored at −80° C. Within 7 days, liver samples were thawed on ice, weighed and analyzed for coenzyme A content as described below. Efficacy was indicated by a statistically significant increase in the liver Coenzyme A levels in the Pank1^−/− mice as compared to the liver from untreated Pank1^−/− mice and by equivalence in comparison with Coenzyme A levels in untreated Pank1^+/+ mice.
CoA Measurements: Extraction of Fibroblasts and Liver and Derivatization of Coenzyme A Prior to High Pressure Liquid Chromatography (HPLC) […]
Coenzyme A Quantification by HPLC […]

## COC(=O)CCNC(=O)[C@H](O)C(C)(C)COP(=O)(N[C@@H](C)C(=O)OC)Oc1ccccc1 (stereo partly drawn) [Example 2, methyl 3-((2R)-2-hydroxy-4-(((((S)-1-methoxy-1-oxopropan-2-yl)amino)(phenoxy)phosphoryl)oxy)-3,3-dimethylbutanamido)propanoate]
[1]
  SJ16 Recovery: Yes
HEK 293T cells
  increase in acetyl CoA over baseline: 42%
Pank1−/− mice; PANK knockout mice, liver mBBr CoA, FIG. 2, compared with normal mice
  levels of CoA in PANK knockout mice (in words): restored levels of CoA to those seen in normal mice
Pank1−/− mice; pank1 KO mice, intraperitoneal 1.2 μmoles/g body weight once daily for 5 days, fasted overnight, liver, n=5
  pmol mBBR-CoA/mg Liver, Mean: 563.358 pmol mBBR-CoA/mg Liver
